Results from ChEMBL document CHEMBL1124385, “A new series of tricyclic (aryloximino)propanolamines displaying very high selective beta 2-blocking properties” (J Med Chem, 1989).

What was measured:
[1] = molecular target: Beta-2 adrenergic receptor (Cavia porcellus, UniProt Q8K4Z4); assay: Beta-2 adrenergic receptor blocking was assessed from 50% inhibition of the isoproterenol submaximal response on isolated Guinea pig trachea(IT)
[2] = molecular target: Beta-1 adrenergic receptor (Cavia porcellus, UniProt B0FL73); assay: Beta-1 adrenergic receptor blocking was assessed from 50% inhibition of the isoproterenol submaximal response on isolated Guinea pig atria(IA)
[3] = Selectivity, ratio of IC50 on guinea pig atria and guinea pig trachea

Sequence of Beta-2 adrenergic receptor (Q8K4Z4 whole entry): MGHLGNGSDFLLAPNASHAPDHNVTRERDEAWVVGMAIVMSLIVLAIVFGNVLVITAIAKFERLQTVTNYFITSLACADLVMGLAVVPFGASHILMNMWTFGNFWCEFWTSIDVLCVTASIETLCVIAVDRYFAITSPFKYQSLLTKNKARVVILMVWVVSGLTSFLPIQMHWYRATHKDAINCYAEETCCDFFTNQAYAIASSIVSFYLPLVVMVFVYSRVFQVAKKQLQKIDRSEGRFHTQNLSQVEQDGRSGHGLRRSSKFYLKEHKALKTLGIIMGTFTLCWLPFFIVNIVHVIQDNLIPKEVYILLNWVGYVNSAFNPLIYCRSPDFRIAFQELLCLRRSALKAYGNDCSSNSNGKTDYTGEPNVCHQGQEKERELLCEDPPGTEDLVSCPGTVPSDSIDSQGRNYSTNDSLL
Sequence of Beta-1 adrenergic receptor (B0FL73 whole entry): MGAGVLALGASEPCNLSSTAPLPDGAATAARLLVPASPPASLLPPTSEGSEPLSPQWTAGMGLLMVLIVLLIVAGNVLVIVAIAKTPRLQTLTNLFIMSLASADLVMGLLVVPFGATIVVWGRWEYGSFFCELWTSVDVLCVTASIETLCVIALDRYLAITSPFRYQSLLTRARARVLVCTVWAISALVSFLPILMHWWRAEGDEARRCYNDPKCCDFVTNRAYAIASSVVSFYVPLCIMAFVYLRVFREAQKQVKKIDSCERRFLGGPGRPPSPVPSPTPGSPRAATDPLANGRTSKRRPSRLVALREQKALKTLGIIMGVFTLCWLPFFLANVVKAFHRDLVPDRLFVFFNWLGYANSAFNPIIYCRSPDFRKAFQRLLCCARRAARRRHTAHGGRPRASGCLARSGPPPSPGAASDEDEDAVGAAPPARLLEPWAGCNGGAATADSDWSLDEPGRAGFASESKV

SMILES	IC50 [1] [µM]	IC50 [2] [µM]	Ratio [3]
COC12CCCCC1c1ccc(F)cc1/C2=N/OCC(O)CNC(C)(C)C (stereo unspecified)	0.45	0.83	
COC12CCCCCC1c1ccccc1/C2=N/OCC(O)CNC(C)C (stereo unspecified)	0.035	3	
COC12CCCCCCCCCC1c1ccccc1/C2=N/OCC(O)CNC(C)C (stereo unspecified)	> 10	> 10	
CC(C)NCC(O)CO/N=C1/c2ccccc2C2CCCCC12OCCO (stereo unspecified)	> 10	> 10	
CC(C)NCC(O)CO/N=C1/c2ccccc2C2CCCCCC12O (stereo unspecified)	> 10	0.89	
COc1cc(CCNCC(O)CO/N=C2/c3ccccc3C3CCCCC23OC)cc(OC)c1 (stereo unspecified)	> 10	> 10	
COC12CCCCCC1c1ccccc1/C2=N/OCC(O)CNC(C)(C)C (stereo unspecified)	0.44	0.16	
COc1cc(CCNCC(O)CO/N=C2/c3cc(F)ccc3C3CCCCC23OC)cc(OC)c1 (stereo unspecified)	> 10	> 10	
COC12CCCCC1c1ccccc1/C2=N/OCC(O)CNC(C)(C)C (stereo unspecified)	0.035	12	33
CC(C)NCC(O)CO/N=C1/c2ccccc2C2CCCCC12O (stereo unspecified)	> 10	> 10	
COc1cc(CCNCC(O)CO/N=C2/c3ccccc3C3CCCCCC23OC)cc(OC)c1 (stereo unspecified)	> 10	13	

Continued, values first:

IC50 [1] [µM]	IC50 [2] [µM]	Ratio [3]	SMILES
31	2.8	0.09	CC(C)(C)NCC(O)CO/N=C1/c2ccccc2C2CCCCC12O (stereo unspecified)
> 10	> 10		CC(C)NCC(O)CO/N=C1/c2ccccc2C2CCCCCC12OCCO (stereo unspecified)
3.1	0.85	0.28	CC(C)(C)NCC(O)CO/N=C1/c2ccccc2C2CCCCC12OCCO (stereo unspecified)
> 10	> 10		COc1cc(CCNCC(O)CO/N=C2/c3ccccc3C3CCCCCCCCCC23OC)cc(OC)c1 (stereo unspecified)
0.3	1.2		COC12CCCCC1c1ccccc1/C2=N/OCC(O)CNC(C)C (stereo unspecified)
7.9	> 1		CC(C)(C)NCC(O)CO/N=C1/c2ccccc2C2CCCCCC12OCCO (stereo unspecified)
0.79	19		COC12CCCCC1c1ccc(F)cc1/C2=N/OCC(O)CNC(C)C (stereo unspecified)
0.44	0.34		CC(C)(C)NCC(O)CO/N=C1/c2ccccc2C2CCCCCC12O (stereo unspecified)
